Here are results for 3 substances from paper PMC10497828, “A novel peptide derived from vascular endothelial growth factor prevents amyloid beta aggregation and toxicity” (Aging Cell, 2023).

Ends that are not written are not given here.

Data set [1] addresses T1, Aβ42 oligomers (LMW Aβo) (Homo sapiens, UniProt P05067).
T1 construct: Biotinyl-Amyloid b pr otein ( 1-42); purchased Bachem H-5642; host or cells: chemical synthesis
Description: Indirect ELISA, binding of immobilized BP/CP to biotinylated LMW Aβ42 oligomers. The protocol:
(§1) Synthetic Aβ40, Aβ42, and their biotinylated forms were obtained as lyophilized samples from Bachem (Aβ40, b‐Aβ40, Aβ42 and b‐Aβ42). Briefly, peptides were solubilized in 1,1,1,3,3,3‐hexafluoro‐2‐propanol to prevent oligomerization, then evaporated overnight under a chemical fume hood, and stored as a dried peptide film at −80°C until use, as previously described (Stine et al., [2003]). Aβ monomers (Aβm) were prepared extemporaneously by first dissolving the peptide film in 2 mM dimethyl sulfoxide (DMSO) and vortexing for 1 min. Peptides were further diluted to 100 μM in ice‐cold PBS. Diluted peptides were subsequently sonicated for 20 min at 4°C, centrifuged at 10,000g for 3 min, then the supernatant was collected and concentration of Aβm measured using a micro BCA protein assay kit, prior to being aliquoted and stored at −20°C until use. […]
(§2) The binding of CP or BP to synthetic biotinylated LMW Aβo (oligomerized at 4°C for 24 h) or Aβ40 monomers (Aβm) was determined by indirect ELISA in which CP or BP were used as the capture antigens and the biotin tag of the biotinylated Aβ peptides for the detection. […] Absorbance was successively measured at 450 and 540 nm with a TECAN microplate reader and optical density values at 540 nm were subtracted from the ones at 450 nm to correct for optical imperfections of the plate. […]
On the technique in general: In an ELISA, binding on a coated surface is turned into a signal by an enzyme label.

The target of data set [2] is T2, Aβo-VEGF interaction (recombinant human VEGF165) (Homo sapiens, UniProt P05067).
T2 construct: Biotinyl-Amyloid b pr otein ( 1-42); purchased R&D Systems (VEGF165); Bachem (biotinyl-Aβ 1-42) 293-VE (VEGF165); H-5642 (biotinyl-Aβ 1-42)
Description: Competitive ELISA, Aβo binding to immobilized VEGF165. The class given is biochemical. The protocol: Data were expressed as mean ± SEM in ThT, Western blotting, synaptic targeting experiments and electrophysiological recordings (Table S2). Normality and variance homoscedasticity were assessed using descriptive analysis and appropriate tests. Sample size (n) was determined based on previous studies from the literature and pilot experiments; n refers to the number of ELISA, ThT or Western Blotting experiments, to coverslips or culture wells for hippocampal neuron cultures, and to mice per condition or per genotype for electrophysiological experiments. […] For the analysis of Aβ‐BP interaction, K D was determined by fitting the data to a two‐parameter saturation curve. […] For quantitative assessment of Aβ aggregation, Aβ expression level and the percentage of synapses colocalized with Aβ, data were compared for statistical significance between groups using a Kruskal–Wallis and a Dunn's post hoc test with Holm correction (R software) (Table S3). For electrophysiological data, statistical analysis between treatments and/or genotypes were carried out using a Kruskal–Wallis followed by a Dunn's post hoc test to compare differences in fEPSP slopes (Table S3). […]
Competi tive ELISA experi ments were performed to anal yse the ability of the BP to impede bi oti nyl ated LMW Aβo bi ndi ng to VEGF. […] After adding the stop solution, absorbance was measured using a TECAN microplate reader.

For data set [3], the system named is SC-CA1 synapses in APP/PS1 hippocampal slices. The data set is described as follows: Paired-pulse facilitation in APP/PS1 hippocampal slices. It counts as cell-based, APP/PS1-21 mouse. The following applies: 50 ms, after TBS.
Description: (§4) Local field potential recordings (LFP) were performed on acute coronal hippocampal slices from 8‐month‐old wild type and transgenic heterozygous male APP/PS1‐21 mice to measure baseline synaptic response and long‐term potentiation (LTP) of Schaffer collaterals to CA1 (SC‐CA1) pyramidal cell synapses. Hippocampal slices (400 μm thick) were cut using a vibratome (Leica VT1200S) and incubated at room temperature in artificial cerebrospinal fluid (ACSF) containing (in mM): 124 NaCl, 10 glucose, 1.25 NaH2PO4, 2.5 KCl, 26 NaHCO3, 1.3 MgCl2, and 2.5 CaCl2, bubbled with 95% O2 and 5% CO2, pH 7.4 for 1 h prior to recording. Field excitatory postsynaptic potentials (fEPSPs) were recorded extracellularly in stratum radiatum of CA1 region of the dorsal hippocampus in presence of gamma‐aminobutyric acid (GABA)‐A receptor antagonist picrotoxin (100 μM). Electrical stimulation was realized with a bipolar tungsten electrode placed in CA1 stratum radiatum and fEPSPs were measured using borosilicate glass microelectrodes (~1–3 MΩ) filled with ACSF. […] LFP were sampled at 10 kHz and fEPSPs initial slope was computed to quantify synaptic responses. […] For quantification, the slope of the synaptic response to the second stimulation was divided by that of the first response.
Data set [4] has as its system hippocampal neuron cultures (Aβo binding to PSD95/Bassoon synapses). The data set is described as follows: Synaptic targeting in hippocampal neurons by Aβ oligomerized with peptide. It counts as cell-based, C57Bl/6JRj mouse. The following applies: Aβ oligomerized 2 h in presence of peptide; 0.5 μM, 30 min. The protocol: Primary hippocampal neuron cultures were prepared from E17‐18 C57Bl/6JRj mice. Briefly, hippocampi were removed and collected in Hank's buffered salt solution (HBSS), digested in HBSS supplemented with trypsin (0.25% v/v) for 10 min at 37°C and then rinsed in HBSS and BSA 0.2%. Next, hippocampi were triturated in Neurobasal medium without phenol red, supplemented with L‐glutamine (2 mM), 2% B27, 1% penicillin/streptomycin (P/S) (10,000 U/mL). Hippocampal neurons were then plated onto poly‐L‐lysine coated coverslips (0.5 mg/mL) at a low density (15 × 10^3 cells/cm^2) for synaptic targeting experiments. Neurons were cultured in supplemented Neurobasal medium at 37°C under 5% CO2, one‐half of the medium being changed once a week. […]
Treated hippocampal neuron cultures were fixed for 4 min in 4% paraformaldehyde (PFA) in 0.1 M phosphate buffer at RT, prior to immunostaining. After a blocking step in non‐permeabilizing condition (PBS, 1% BSA) surface‐bound biotinylated Aβ was detected with fluorescently tagged streptavidin incubated for 3 h at RT. […]
Subsequent analyses of hippocampal synapse staining were performed by a blinded investigator with Icy software. […] Biotinylated Aβ clusters were quantified in each ROI in collapsed Z‐stacks. […]

In data set [5] the test system is SC-CA1 synapses in WT hippocampal slices. The data set is described as follows: LTP (TBS) in WT hippocampal slices. The class given is cell-based, wild-type mouse. The protocol:
(§3) Data were expressed as mean ± SEM in ThT, Western blotting, synaptic targeting experiments and electrophysiological recordings (Table S2). Normality and variance homoscedasticity were assessed using descriptive analysis and appropriate tests. Sample size (n) was determined based on previous studies from the literature and pilot experiments; n refers to the number of ELISA, ThT or Western Blotting experiments, to coverslips or culture wells for hippocampal neuron cultures, and to mice per condition or per genotype for electrophysiological experiments. […] For the analysis of Aβ‐BP interaction, K D was determined by fitting the data to a two‐parameter saturation curve. […] For quantitative assessment of Aβ aggregation, Aβ expression level and the percentage of synapses colocalized with Aβ, data were compared for statistical significance between groups using a Kruskal–Wallis and a Dunn's post hoc test with Holm correction (R software) (Table S3). For electrophysiological data, statistical analysis between treatments and/or genotypes were carried out using a Kruskal–Wallis followed by a Dunn's post hoc test to compare differences in fEPSP slopes (Table S3).

The test system of data set [6] is Aβ42 monomers (Aβm), fibrillation. Description: Thioflavin T aggregation assay. The following applies: increasing concentrations 0.5 to 15 μM, 15 μM Aβm, 24 h. The class given is biochemical. The protocol:
as §1
Thioflavin‐T (ThT) assays were performed in black polystyrene 384‐well plates using a Tecan microplate reader with a set of excitation/emission wavelengths of 450/490 nm. […] The plate was sealed with a transparent plastic film and incubated at 37°C prior to fluorescence measurement. ThT fluorescence intensity was monitored every 5 min over 24 h at 37°C without agitation. Three replicates per condition were measured.
Data were expressed as mean ± SEM in ThT, Western blotting, synaptic targeting experiments and electrophysiological recordings (Table S2). […]

The target of data set [7] is T3, Aβ40 monomers (Aβm) (Homo sapiens, UniProt P05067).
T3 construct: Biotinyl-Amyloid b pr otein ( 1-40); purchased Bachem H-5914; host or cells: chemical synthesis
Description: Indirect ELISA, binding of immobilized BP/CP to biotinylated Aβ40 monomers. Particulars: Aβm 0 to 10 μg/mL. The protocol:
as §1, §2

Data set [8] has as its system Aβ42 fibrils. The data set is described as follows: Transmission electron microscopy of Aβ aggregates. The class given is biochemical. The protocol: Synthetic Aβ40, Aβ42, and their biotinylated forms were obtained as lyophilized samples from Bachem (Aβ40, b‐Aβ40, Aβ42 and b‐Aβ42). Briefly, peptides were solubilized in 1,1,1,3,3,3‐hexafluoro‐2‐propanol to prevent oligomerization, then evaporated overnight under a chemical fume hood, and stored as a dried peptide film at −80°C until use, as previously described (Stine et al., [2003]). Aβ monomers (Aβm) were prepared extemporaneously by first dissolving the peptide film in 2 mM dimethyl sulfoxide (DMSO) and vortexing for 1 min. Peptides were further diluted to 100 μM in ice‐cold PBS. Diluted peptides were subsequently sonicated for 20 min at 4°C, centrifuged at 10,000g for 3 min, then the supernatant was collected and concentration of Aβm measured using a micro BCA protein assay kit, prior to being aliquoted and stored at −20°C until use. […] Aβ preparations were used either directly as monomers (for Aβ40 Elisa assays and ThT experiments) or were subjected to different oligomerization states, enriched in high molecular weight Aβ42 oligomers (HMW Aβo) or in low molecular weight Aβ42 oligomers (LMW Aβo). For Aβ preparations enriched in Aβ fibrils, monomeric Aβ42 peptides (Aβm) were incubated at a concentration of either 30 μM or 15 μM during 24 h at 37°C. For HMW Aβo, Aβm was incubated at 15 μM for 2 h at 37°C. […]

The subject of data set [9] is SC-CA1 synapses in APP/PS1 hippocampal slices. Description: LTP (TBS) in APP/PS1 hippocampal slices. It counts as cell-based, APP/PS1-21 mouse. The protocol: as §3
For data set [10], the system named is Aβ42 oligomerization (monomers, LMW and HMW Aβo). Description: Western blot (6E10) of soluble Aβ species formed in presence of peptide. It counts as biochemical. The following applies: equimolar peptide, 15 μM Aβm, 37°C. The protocol:
as §1
After a 45 min blocking step in Tris‐buffered saline, 0.1% Tween, pH 7.6, 5% milk, membranes were immunoblotted overnight at 4°C with dedicated antibodies (Table S1) diluted in Tris‐buffered saline, 0.1% Tween, pH 7.6, with 2% milk. […] Proteins were visualized with an ECL detection system and band intensities quantified using a densitometric analysis with ImageJ software.
(A western blot detects proteins with antibodies after separation by electrophoresis.)

The test system of data set [11] is SC-CA1 synapses in WT hippocampal slices. The data set is described as follows: Paired-pulse facilitation in WT hippocampal slices. The class given is cell-based, wild-type mouse. Particulars: 50 ms, after TBS.
Description: as §4
The test system of data set [12] is VEGFR2 phosphorylation (Tyr1175) in HUVEC. The data set is described as follows: VEGFR2 phosphorylation Western blot in HUVEC. It counts as cell-based, human. The following applies: 0.5 μM, 5 min.
Description: Human um bi l i cal v ei n endothel i al C ell s (HUVEC ) were obtai ned from Pr omocel l and cul tured
in 6 cm Petri di s hes pre-coated wi th col l ag en I at 5 µ g /cm2 in 20 mM glacial acetic acid. HUVEC
were cultured at 7000 cells/cm2 in endothelial cell growth medium MV2 heparin free
(Promocel l ) s uppl emented wi th 1% P/S unti l reac hi ng 80% c onfl uency , an d were us ed for u p
0.5 µ M. After treatments, HUVEC were washed a nd i ncubated i n 6 00 mL of l ysi s buf fer (Tri s HCL 25 mM, EDTA 5 mM, DOC 0.5 mM, NP40 1%, SDS 0.1%, NaCl 150 mM), suppl emented with cOmplete protease inhibitor cocktail 2%, Benzonase 0.02%, Orthovanadate 2%, and phos phat as e i nhi bi t ors 2% for 10 mi n at 4°C .
For immunoblotting of HUVEC cel l l y s ates , 20 µg of proteins were separated on 3-8% g radi ent SDS-PAGE gels at 120V, with cathode and ano de contai ni ng XT Try ci ne buffe r. G el s w ere transferred on 0.2 µm nitrocellulose membranes at 120V for 2h in 5% methanol, Tris-Glycine buffer and immunoblotted.
were used in combination with approp riate secondary antibodies (Table S1)
For data set [13], the system named is synapses / LTP impaired by Aβo. Particulars: ref Martin et al., 2021; cited from earlier work.
[14] abbreviates: 0.5 μM, at least 40 min before TBS.

T1 sequence (P05067 672-713 limits assumed): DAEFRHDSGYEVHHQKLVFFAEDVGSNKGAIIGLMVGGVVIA
T2 sequence (P05067 672-713 limits assumed): as above
T3 sequence (P05067 672-711 limits assumed): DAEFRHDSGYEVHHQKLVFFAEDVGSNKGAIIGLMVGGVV

One may read the Kd as the free concentration of one partner at which half of the binding sites on the other are occupied at equilibrium, for simple one-to-one binding. Usually EC50 stands for the concentration giving half of the maximal effect. In data set [1], KRKKSRYKSWSVYVG [BP] registered a Kd of 12 nM. Also, the EC50 in data set [2] (Aβo 2.1 μM preincubated with BP 1 h RT, three-parameter sigmoidal fit, n = 5-6) came to 350 nM.

For the substance NDYKDDDDKGAAA [CP], the “Effect on paired-pulse ratio” value in data set [3] and in [11] was “no differences were detected” in each case. Also, the “Aβo binding to neuron surface and synapses” value in [4] is listed as “strong binding to hippocampal neuron surface”. Also, the “Effect on LTP in WT slices” value in data set [5] (setting [14]) is given as “neither CP nor the BP impacted LTP responses”. For the same substance, the “LTP amplitude, fEPSP slope 55–60 min after TBS” value in [5] (peptide 0.5 μM at least 40 min before TBS, WT slices, 8-month-old male, mean ± SEM, n = 6 mice) is recorded as 191.4 ± 18.3%; in [9] (peptide 0.5 μM at least 40 min before TBS, APP/PS1 slices, 8-month-old male, mean ± SEM, n = 7 mice), 119 ± 9.1%. Also, the “Effect on ThT fluorescence” value in data set [6] is “had no impact on ThT fluorescence”. For the same substance, in [7], the “Binding of Aβm to immobilized peptide” value is recorded as “failed to bind to the CP even at the highest concentration”. In addition, the “Morphology of Aβ aggregates by TEM” value in [8] (Aβ 30 μM + equimolar peptide, 24 h at 37°C, n = 4) is recorded as “typical fibrillary structures”. Moreover, the “Structures formed by peptide alone, TEM” value in [8] (peptide alone, no Aβ) was “do not show any detectable 3D structures”. In addition, the “Effect on LTP in APP/PS1 slices” value in data set [9] (setting [14]) is “failed to restore LTP”. Moreover, in [10], the “Effect on proportion of Aβ species” value is on record as “did not change the proportion of Aβo species”. The “Binding of Aβo to immobilized peptide” value in [1] (ELISA, Aβo 0 to 10 μg/mL) is “failed to bind to the CP even at the highest concentration”. The “Effect on Aβo-VEGF interaction” value in data set [2] (peptide preincubated with Aβo 2.1 μM) was “did not affect Aβo binding”. Besides, in data set [12], the “Effect on basal VEGFR2 phosphorylation” value is “did not affect basal VEGFR2 phosphorylation level”.

For VEGF, the “Protection of synapses / LTP from Aβo” value in data set [13] is “ability to preserve synapses from dysfunction and LTP deficits caused by Aβo”.
